Values after ≈ are worked out from the molar mass of the structure shown. Active and inactive are the calls of the source. The rule behind the calls is not given here.
Tests used:
[1] = species: Rattus norvegicus; settings: Brain, 5 uM
Description: Inhibition of MAO in rat brain homogenate at 5 uM using kynuramine as substrate by fluorimetry

[2] = test system: Rattus norvegicus; assay: Antidepressant activity in Albino rat assessed as immobility time at 100 mg/kg, ip by forced swimming test (reference value: 112.4 +/- 2.88 sec); type: functional; settings: route intraperitoneal
[3] = test system: Rattus norvegicus; assay: Neurotoxicity in rat assessed as impair in motor coordination at 100 mg/kg, ip after 30 mins by rotarod test (reference value: 116.50 +/- 1.18 sec); type: toxicity, organism-based; set-up: dose 100 mg/kg, route intraperitoneal; settings: in vivo, 0.5 h
[4] = test system: Aspergillus niger; assay: Antifungal activity against Aspergillus niger MTCC 281 after 72 hrs; type: functional
[5] = test system: Aspergillus flavus; assay: Antifungal activity against Aspergillus flavus MTCC 277 after 72 hrs; type: functional; settings: for MIC: Aspergillus flavus, MTCC 277, 72 h
[6] = Antifungal activity against Monascus purpureus MTCC 369 after 72 hrs; type: functional
[7] = test system: Penicillium citrinum; assay: Antifungal activity against Penicillium citrinum NCIM 768 after 72 hrs; type: functional
[8] = species: Rattus norvegicus; assay: Inhibition of MAO in rat brain homogenate at 0.0005 M using kynuramine as substrate by fluorimetry; type: tissue-based
[9] = test system: Rattus norvegicus; assay: Antidepressant activity in Albino rat assessed as immobility time at 20 mg/kg, ip by forced swimming test (reference value: 112.4 +/- 2.88 sec); type: functional; settings: route intraperitoneal
[10] = species: Rattus norvegicus; assay: Neurotoxicity in rat assessed as impair in motor coordination at after 30 mins by rotarod test (reference value: 116.50 +/- 1.18 sec); type: toxicity, organism-based; settings: in vivo, 0.5 h
[11] = Aspergillus niger, MTCC 281, 72 h
[12] = Penicillium citrinum, NCIM 768, 72 h

| SMILES | inhibition [1] [%] | Time [2] [s] | Time [3] [s] | inhibition zone (IZ) [4] | MIC [4, 11] [µg/mL] | inhibition zone (IZ) [5] [mm] | MIC [5] [µg/mL] | MIC [6] | inhibition zone (IZ) [6] | inhibition zone (IZ) [7] | MIC [7, 12] [µg/mL] | inhibition [8] [%] | Time [9] [s] | Time [10] [s] | MIC [7] | MIC [4] |
| --- | --- | --- | --- | --- | --- | --- | --- | --- | --- | --- | --- | --- | --- | --- | --- | --- |
| N[C@@H]1C[C@H]1c1ccccc1.N[C@H]1C[C@@H]1c1ccccc1 | 91.6 | – | – | – | – | – | – | – | – | – | – | – | – | – | – | – |
| Cc1cccc2cc(CNc3ccc(F)c(Cl)c3)c(Cl)nc12 | – | 74.2 | 93.67 | 8.5 mm | 12.5 (≈ 37.3 µM) | 8.5 | 12.5 (≈ 37.3 µM) | 25 µg/mL (≈ 74.6 µM) | 5.5 mm | 6 mm | 25 (≈ 74.6 µM) | 32.1 | – | – | – | – |
| Cc1cccc2cc(CNc3ccc(Br)cc3)c(Cl)nc12 | – | – | – | 5.5 mm | 25 (≈ 69.1 µM) | 6 | 25 (≈ 69.1 µM) | 100 µg/mL (≈ 276 µM) | 7 mm | 6.5 mm | 100 (≈ 276 µM) | – | – | – | – | – |
| CN(C)CCCN1c2ccccc2CCc2ccc(Cl)cc21 [CLOMIPRAMINE] | – | – | – | – | – | – | – | – | – | – | – | – | 63.4 | 110.83 | – | – |
| Cc1cccc2cc(CNc3cccc(Cl)c3)c(Cl)nc12 | – | 76.2 | 97.83 | 5.5 mm | 12.5 (≈ 39.4 µM) | 6 | 12.5 (≈ 39.4 µM) | 50 µg/mL (≈ 158 µM) | 6.5 mm | 5.5 mm | 25 (≈ 78.8 µM) | 26.8 | – | – | – | – |
| Cc1ccc(NCc2cc3cccc(C)c3nc2Cl)cc1 | – | 96.6 | 96.5 | 6 mm | 50 (≈ 168 µM) | 7 | 50 (≈ 168 µM) | 100 µg/mL (≈ 337 µM) | 7.5 mm | 6 mm | 100 (≈ 337 µM) | – | – | – | – | – |
| COc1ccc(NCc2cc3cccc(C)c3nc2Cl)cc1 | – | – | – | 6.5 mm | 50 (≈ 160 µM) | 6.5 | 50 (≈ 160 µM) | 100 µg/mL (≈ 320 µM) | 5.5 mm | 6.5 mm | 100 (≈ 320 µM) | – | – | – | – | – |
| Cc1cccc(NCc2cc3cccc(C)c3nc2Cl)c1 | – | – | – | 6 mm | 100 (≈ 337 µM) | 5.5 | 100 (≈ 337 µM) | inactive | inactive | inactive | – | – | – | – | inactive | – |
| Cc1cccc2cc(CNCc3ccccc3)c(Cl)nc12 | – | 78.4 | 98.33 | 5.5 mm | 12.5 (≈ 42.1 µM) | 6 | 12.5 (≈ 42.1 µM) | 100 µg/mL (≈ 337 µM) | 7 mm | 6.5 mm | 100 (≈ 337 µM) | – | – | – | – | – |
| Cc1cccc2cc(CNc3ccc(Cl)c(Cl)c3)c(Cl)nc12 | – | 73.6 | 90.83 | 8 mm | 12.5 (≈ 35.5 µM) | 9 | 12.5 (≈ 35.5 µM) | 50 µg/mL (≈ 142 µM) | 8 mm | 6.5 mm | 25 (≈ 71.1 µM) | 35 | – | – | – | – |
| Cc1cccc2cc(CNc3ccc(Cl)cc3)c(Cl)nc12 | – | 77.2 | 95.17 | 7.5 mm | 12.5 (≈ 39.4 µM) | 6.5 | 12.5 (≈ 39.4 µM) | 50 µg/mL (≈ 158 µM) | 7 mm | 6 mm | 50 (≈ 158 µM) | 23.5 | – | – | – | – |
| Cc1cccc2cc(CNc3ccc(F)cc3)c(Cl)nc12 | – | 80.4 | 91.33 | 6 mm | 12.5 (≈ 41.6 µM) | 6 | 12.5 (≈ 41.6 µM) | 50 µg/mL (≈ 166 µM) | 8 mm | 7 mm | 50 (≈ 166 µM) | 19.6 | – | – | – | – |
| OC(Cn1cncn1)(Cn1cncn1)c1ccc(F)cc1F [FLUCONAZOLE] | – | – | – | 13.5 mm | 6.25 (≈ 20.4 µM) | 14.5 | 6.25 (≈ 20.4 µM) | 6.25 µg/mL (≈ 20.4 µM) | 11 mm | 12 mm | 6.25 (≈ 20.4 µM) | – | – | – | – | – |
| CNCCC(Oc1ccc(C(F)(F)F)cc1)c1ccccc1 (stereo unspecified) [FLUOXETINE] | – | – | – | 10.5 mm | 6.25 (≈ 20.2 µM) | – | 6.25 (≈ 20.2 µM) | 6.25 µg/mL (≈ 20.2 µM) | 9 mm | 8 mm | 6.25 (≈ 20.2 µM) | – | 55.4 | 107.2 | – | – |
| Cc1cccc2cc(CNC3CCCCC3)c(Cl)nc12 | – | 76.6 | 97.17 | 5.5 mm | 200 (≈ 692 µM) | 5.5 | 200 (≈ 692 µM) | inactive | inactive | 5.5 mm | 200 (≈ 692 µM) | 20.6 | – | – | – | – |
| Cc1cccc2cc(CNc3ccccc3Cl)c(Cl)nc12 | – | – | – | 5.5 mm | 50 (≈ 158 µM) | 6 | 50 (≈ 158 µM) | 100 µg/mL (≈ 315 µM) | 6.5 mm | 6 mm | 100 (≈ 315 µM) | – | – | – | – | – |
| Cc1cccc2cc(CNc3ccccc3)c(Cl)nc12 | – | 103.2 | 100.33 | 6 mm | 25 (≈ 88.4 µM) | 6.5 | 25 (≈ 88.4 µM) | 100 µg/mL (≈ 354 µM) | 7 mm | 6 mm | 100 (≈ 354 µM) | – | – | – | – | – |
| Cc1ccccc1NCc1cc2cccc(C)c2nc1Cl | – | – | – | 6.5 mm | 100 (≈ 337 µM) | 7 | 100 (≈ 337 µM) | inactive | inactive | inactive | – | – | – | – | inactive | – |
| Cc1cccc2cc(CNc3ccc([N+](=O)[O-])cc3)c(Cl)nc12 | – | 86.8 | 93.5 | 7 mm | 100 (≈ 305 µM) | 6.5 | 100 (≈ 305 µM) | inactive | inactive | inactive | – | – | – | – | inactive | – |
| CCCCNCc1cc2cccc(C)c2nc1Cl | – | 97.2 | 92.34 | inactive | – | 5 | 200 (≈ 761 µM) | inactive | inactive | 5 mm | 200 (≈ 761 µM) | – | – | – | – | inactive |
